Experiments:
Abcc6−/− mice = conditions: female Abcc6−/− mice, oral, 10 mM in drinking water
Procedure: Briefly, mice were kept under routine laboratory conditions with a 12-hour light-dark cycle and ad libitum access to water and chow. Anesthesia was carried out by intraperitoneal injection of the mixture of Zoletil (30 mg/kg, Virbac, France), Xylazine (12.5 mg/kg, Produlab Pharma, The Netherlands) and Butorphanol (3 mg/kg, Richterpharma, Austria) during all procedures.
In this experiment calcification was induced in the myocardium and five days after we determined the Ca^2+-content of the heart.

[1] = healthy volunteers, oral, gelatin capsules, 39 mg pyrophosphate/kg
Procedure: To avoid the unpleasant taste we used capsulated PPi salts instead of water-based solution as the form of delivery. We tested two different capsules: gelatin and cellulose. Subsequently, we determined how PPi is absorbed in individuals affected by PXE compared to its absorption in non-PXE volunteers.
Human studies were conducted in accordance with the Declaration of Helsinki. The oral uptake studies involving healthy human volunteers (female and male) were conducted and all patient samples were handled in an anonymized form. The oral uptake study involving PXE patients involved mutation analysis confirming the diagnosis in PXE patients. The diagnosis of PXE was based on characteristic skin findings, supported by characteristic histopathology, and ocular and vascular involvement.
Gelatin capsules were obtained from Molar Chemicals (Halasztelek, Hungary), cellulose capsules were obtained from Capsuline (Davie, Fla.).
Volunteers and PXE patients (after overnight fasting) were involved in the studies. The duration of ingestion was less than one minute. Blood samples were collected from the vena cubiti before ingestion (0 min) and after 30, 60, 120 and 240 min into CTAD anticoagulated tubes (BD, Franklin Lakes, N.J.), and filtered through Centrisart I 300,000 MWCO filters (Sartorius, Frankfurt, Germany). […]

SMILES	calcification of the heart (total Ca2+-content) five days after cryo-injury (Abcc6−/− mice)	GI discomfort [1]
O=P([O-])([O-])OP(=O)(O)O.[K+].[K+] [K2H2P2O7, Dipotassium Pyrophosphate]	reduce calcification to the same extent	–
O=P([O-])([O-])OP(=O)(O)O.[Na+].[Na+] [Na2H2P2O7, disodium pyrophosphate, reference compound]	reduce calcification to the same extent	reduced to the minimum

From patent US20230381223A1, “ORAL PYROPHOSPHATE FOR USE IN REDUCING CALCIFICATION” (PYROGENYX INC., priority 2020, published 2023)
